# Measured values taken from ChEMBL document CHEMBL4507313, “Data for DCP probe BAY-179” (2021).
# What was measured:
# [1] = target: Sodium-dependent dopamine transporter (Homo sapiens) (UniProt Q01959); conditions: Compound concentration 10.0 uM
# [2] = target: Muscarinic acetylcholine receptor M2 (Homo sapiens) (UniProt P08172); conditions: Compound concentration 10.0 uM
# [3] = target: Histamine H1 receptor (Homo sapiens) (UniProt P35367); conditions: Compound concentration 10.0 uM
# [4] = target: Sodium-dependent serotonin transporter (Homo sapiens) (UniProt P31645); conditions: Compound concentration 10.0 uM
# [5] = target: Alpha-2C adrenergic receptor (Homo sapiens) (UniProt P18825); conditions: Compound concentration 10.0 uM
# [6] = target: Muscarinic acetylcholine receptor M1 (Homo sapiens) (UniProt P11229); conditions: Compound concentration 10.0 uM
# [7] = target: T1, Sigma intracellular receptor 2 (Homo sapiens, UniProt Q5BJF2); conditions: Compound concentration 10.0 uM
# [8] = target: T2, GABA-A receptor; anion channel (Rattus norvegicus) (UniProt O09028+P15431+P18506+P18508+P19969+P20236+P23574+P23576+P28471+P28473+P30191+P62813+P63079+P63138+Q91ZM7+Q9ES14); conditions: Compound concentration 10.0 uM
# [9] = target: T3, 5-hydroxytryptamine receptor 2B (Homo sapiens, UniProt P41595); conditions: Compound concentration 10.0 uM
# [10] = target: T4, Sigma non-opioid intracellular receptor 1 (Homo sapiens, UniProt Q99720); experiment: GPCRScan assay: inhibition of Sigma 1; set-up: radioligand conc. used [nm] 4.0 – 5.0, parental cells HEKT
# [11] = target: Muscarinic acetylcholine receptor M4 (Homo sapiens) (UniProt P08173); conditions: Compound concentration 10.0 uM
# Rattus norvegicus = species on record: Rattus norvegicus; conditions: Compound concentration 10.0 uM
# [12] = target: 5-hydroxytryptamine receptor 2A (Homo sapiens) (UniProt P28223); conditions: Compound concentration 10.0 uM
# [13] = target: D(4) dopamine receptor (Homo sapiens) (UniProt P21917); conditions: Compound concentration 10.0 uM
# [14] = target: Alpha-2A adrenergic receptor (Homo sapiens) (UniProt P08913); conditions: Compound concentration 10.0 uM
# [15] = target: Alpha-1D adrenergic receptor (Homo sapiens) (UniProt P25100); conditions: Compound concentration 10.0 uM
# [16] = target: 5-hydroxytryptamine receptor 1A (Homo sapiens) (UniProt P08908); conditions: Compound concentration 10.0 uM
# [17] = target: T5, 5-hydroxytryptamine receptor 6 (Homo sapiens, UniProt P50406); conditions: Compound concentration 10.0 uM
# [18] = target: T3, 5-hydroxytryptamine receptor 2B; experiment: GPCRScan assay: inhibition of 5-HT2B; set-up: radioligand conc. used [nm] 1.0 – 2.0, parental cells stable HEK
# [19] = target: 5-hydroxytryptamine receptor 5A (Homo sapiens) (UniProt P47898); conditions: Compound concentration 10.0 uM
# [20] = target: Delta-type opioid receptor (Homo sapiens) (UniProt P41143); conditions: Compound concentration 10.0 uM
# [21] = target: Histamine H2 receptor (Homo sapiens) (UniProt P25021); conditions: Compound concentration 10.0 uM
# [22] = target: D(2) dopamine receptor (Homo sapiens) (UniProt P14416); conditions: Compound concentration 10.0 uM
# [23] = target: 5-hydroxytryptamine receptor 1D (Homo sapiens) (UniProt P28221); conditions: Compound concentration 10.0 uM
# [24] = target: Beta-3 adrenergic receptor (Homo sapiens) (UniProt P13945); conditions: Compound concentration 10.0 uM
# [25] = target: 5-hydroxytryptamine receptor 2C (Homo sapiens) (UniProt P28335); conditions: Compound concentration 10.0 uM
# [26] = target: Alpha-1A adrenergic receptor (Homo sapiens) (UniProt P35348); conditions: Compound concentration 10.0 uM
# [27] = target: Histamine H4 receptor (Homo sapiens) (UniProt Q9H3N8); conditions: Compound concentration 10.0 uM
# [28] = target: 5-hydroxytryptamine receptor 1B (Homo sapiens) (UniProt P28222); conditions: Compound concentration 10.0 uM
# [29] = target: Mu-type opioid receptor (Homo sapiens) (UniProt P35372); conditions: Compound concentration 10.0 uM
# [30] = target: Histamine H3 receptor (Homo sapiens) (UniProt Q9Y5N1); conditions: Compound concentration 10.0 uM
# [31] = target: Kappa-type opioid receptor (Homo sapiens) (UniProt P41145); conditions: Compound concentration 10.0 uM
# [32] = target: Muscarinic acetylcholine receptor M5 (Homo sapiens) (UniProt P08912); conditions: Compound concentration 10.0 uM
# [33] = target: T4, Sigma non-opioid intracellular receptor 1; conditions: Compound concentration 10.0 uM
# [34] = target: 5-hydroxytryptamine receptor 7 (Homo sapiens) (UniProt P34969); conditions: Compound concentration 10.0 uM
# [35] = target: D(1B) dopamine receptor (Homo sapiens) (UniProt P21918); conditions: Compound concentration 10.0 uM
# [36] = target: T1, Sigma intracellular receptor 2; experiment: GPCRScan assay: inhibition of Sigma 2; set-up: radioligand conc. used [nm] 5.0, parental cells HEKT
# [37] = target: Beta-1 adrenergic receptor (Homo sapiens) (UniProt P08588); conditions: Compound concentration 10.0 uM
# [38] = target: Sodium-dependent noradrenaline transporter (Homo sapiens) (UniProt P23975); conditions: Compound concentration 10.0 uM
# [39] = target: D(3) dopamine receptor (Homo sapiens) (UniProt P35462); conditions: Compound concentration 10.0 uM
# [40] = target: Alpha-1B adrenergic receptor (Homo sapiens) (UniProt P35368); conditions: Compound concentration 10.0 uM
# [41] = target: Beta-2 adrenergic receptor (Homo sapiens) (UniProt P07550); conditions: Compound concentration 10.0 uM
# [42] = target: 5-hydroxytryptamine receptor 3A (Homo sapiens) (UniProt P46098); conditions: Compound concentration 10.0 uM
# [43] = target: Muscarinic acetylcholine receptor M3 (Homo sapiens) (UniProt P20309); conditions: Compound concentration 10.0 uM
# [44] = target: Alpha-2B adrenergic receptor (Homo sapiens) (UniProt P18089); conditions: Compound concentration 10.0 uM
# LS174T = experiment: LS174T cell line Proliferation assay; assay type: functional, Homo sapiens
# LOX IMVI = experiment: LOX cell line Proliferation assay; assay type: functional, Homo sapiens
# Caco-2 = experiment: Caco-2 cell line Proliferation assay; assay type: functional, Homo sapiens
# [45] = target: 5-hydroxytryptamine receptor 3A (Homo sapiens, UniProt P46098); experiment: GPCRScan assay: inhibition of 5-HT3; set-up: radioligand conc. used [nm] 1.0 – 2.0, parental cells HEKT
# BG-1 cell line = experiment: BG1 cell line Proliferation assay; assay type: functional, Homo sapiens
# [46] = target: T2, GABA-A receptor; anion channel (Rattus norvegicus); conditions: Compound concentration 10.0 uM; remark: listed apart in the source
# [47] = GXF25 1 cell line Proliferation assay; assay type: functional, Homo sapiens; conditions: Cell line Patient derived
# [48] = target: T5, 5-hydroxytryptamine receptor 6; experiment: GPCRScan assay: inhibition of 5-HT6; set-up: radioligand conc. used [nm] 2.0 – 4.0, parental cells stable HEK
# [49] = target: Muscarinic acetylcholine receptor M2 (Homo sapiens, UniProt P08172); experiment: GPCRScan assay: inhibition of M2; set-up: radioligand conc. used [nm] 0.2 – 1.0, parental cells stable CHO
# [50] = BXF135 2 cell line Proliferation assay; assay type: functional, Homo sapiens; conditions: Cell line Patient derived
# SK-MEL-28 = experiment: SK- MEL-28 cell line Proliferation assay; assay type: functional, Homo sapiens
# [51] = BXF121 8 cell line Proliferation assay; assay type: functional, Homo sapiens; conditions: Cell line Patient derived
# [52] = target: D(1A) dopamine receptor (Homo sapiens) (UniProt P21728); conditions: Compound concentration 10.0 uM
# [53] = target: 5-hydroxytryptamine receptor 1E (Homo sapiens) (UniProt P28566); conditions: Compound concentration 10.0 uM
# MKN-1 = experiment: MKN1 cell line Proliferation assay; assay type: functional, Homo sapiens
# RKO = experiment: RKO cell line Proliferation assay; assay type: functional, Homo sapiens
# [54] = target: Alpha-2C adrenergic receptor (Homo sapiens, UniProt P18825); experiment: GPCRScan assay: inhibition of Alpha2C; set-up: radioligand conc. used [nm] 0.5 – 1.0, parental cells stable MDCK
# [55] = LXFA62 9 cell line Proliferation assay; assay type: functional, Homo sapiens, LXF 629L; conditions: Cell line Patient derived
# T5 sequence (P50406 whole entry): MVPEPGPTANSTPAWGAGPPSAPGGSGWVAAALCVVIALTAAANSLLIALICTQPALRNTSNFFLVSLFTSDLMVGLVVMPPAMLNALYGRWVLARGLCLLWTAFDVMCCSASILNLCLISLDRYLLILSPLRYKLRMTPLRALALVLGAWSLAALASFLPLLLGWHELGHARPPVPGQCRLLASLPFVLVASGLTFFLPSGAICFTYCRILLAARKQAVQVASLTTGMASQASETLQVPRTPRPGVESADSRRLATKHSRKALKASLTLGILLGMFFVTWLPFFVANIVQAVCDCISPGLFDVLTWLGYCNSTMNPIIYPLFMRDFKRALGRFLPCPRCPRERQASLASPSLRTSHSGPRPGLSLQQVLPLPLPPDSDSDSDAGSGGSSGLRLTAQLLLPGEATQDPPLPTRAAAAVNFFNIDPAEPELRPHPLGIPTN
# T4 sequence (Q99720 whole entry): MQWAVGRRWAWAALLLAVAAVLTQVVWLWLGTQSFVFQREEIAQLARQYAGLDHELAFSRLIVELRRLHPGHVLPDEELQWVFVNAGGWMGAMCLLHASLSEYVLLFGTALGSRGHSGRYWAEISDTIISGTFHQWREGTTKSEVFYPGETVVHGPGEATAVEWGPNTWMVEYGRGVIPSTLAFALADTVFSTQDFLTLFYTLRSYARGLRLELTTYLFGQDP
# T3 sequence (P41595 whole entry): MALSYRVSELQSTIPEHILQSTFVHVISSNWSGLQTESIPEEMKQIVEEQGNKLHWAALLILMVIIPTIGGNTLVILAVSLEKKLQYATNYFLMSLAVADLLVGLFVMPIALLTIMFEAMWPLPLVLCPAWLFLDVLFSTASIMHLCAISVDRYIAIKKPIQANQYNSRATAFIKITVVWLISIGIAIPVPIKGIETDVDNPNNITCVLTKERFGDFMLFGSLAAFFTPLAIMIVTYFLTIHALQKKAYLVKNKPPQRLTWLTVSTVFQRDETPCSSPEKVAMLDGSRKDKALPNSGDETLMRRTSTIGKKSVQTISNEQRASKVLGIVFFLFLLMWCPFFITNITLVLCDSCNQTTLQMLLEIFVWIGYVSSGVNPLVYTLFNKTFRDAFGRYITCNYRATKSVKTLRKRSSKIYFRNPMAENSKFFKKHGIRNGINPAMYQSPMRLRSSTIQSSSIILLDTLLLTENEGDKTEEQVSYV
# T1 sequence (Q5BJF2 whole entry): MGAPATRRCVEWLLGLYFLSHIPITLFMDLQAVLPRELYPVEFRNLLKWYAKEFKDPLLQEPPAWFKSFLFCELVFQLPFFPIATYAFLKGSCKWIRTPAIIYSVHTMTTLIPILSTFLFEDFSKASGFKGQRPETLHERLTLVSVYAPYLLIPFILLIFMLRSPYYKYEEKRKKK
# 5-hydroxytryptamine receptor 2A (Homo sapiens), sequence (P28223 whole entry): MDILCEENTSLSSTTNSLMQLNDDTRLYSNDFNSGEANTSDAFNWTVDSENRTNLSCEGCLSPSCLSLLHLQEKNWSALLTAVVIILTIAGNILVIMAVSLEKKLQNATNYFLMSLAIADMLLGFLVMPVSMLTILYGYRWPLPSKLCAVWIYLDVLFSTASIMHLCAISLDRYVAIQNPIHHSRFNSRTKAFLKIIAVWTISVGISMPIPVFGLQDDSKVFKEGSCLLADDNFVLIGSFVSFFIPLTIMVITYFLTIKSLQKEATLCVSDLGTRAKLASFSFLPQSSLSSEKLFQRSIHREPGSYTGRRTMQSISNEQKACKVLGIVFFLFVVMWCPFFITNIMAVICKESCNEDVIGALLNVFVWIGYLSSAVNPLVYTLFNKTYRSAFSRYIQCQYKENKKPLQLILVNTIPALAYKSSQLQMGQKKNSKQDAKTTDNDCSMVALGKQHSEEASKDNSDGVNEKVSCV
# Kappa-type opioid receptor (Homo sapiens), sequence (P41145 whole entry): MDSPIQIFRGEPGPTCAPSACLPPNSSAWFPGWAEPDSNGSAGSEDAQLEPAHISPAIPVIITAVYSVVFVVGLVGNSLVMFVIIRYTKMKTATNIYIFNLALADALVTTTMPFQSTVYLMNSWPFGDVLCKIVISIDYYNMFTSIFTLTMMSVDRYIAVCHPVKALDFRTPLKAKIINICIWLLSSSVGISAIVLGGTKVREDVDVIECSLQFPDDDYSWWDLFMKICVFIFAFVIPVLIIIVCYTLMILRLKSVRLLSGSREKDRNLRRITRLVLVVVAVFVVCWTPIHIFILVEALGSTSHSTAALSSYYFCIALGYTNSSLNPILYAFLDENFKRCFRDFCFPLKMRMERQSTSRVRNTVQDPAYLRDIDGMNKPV
# 5-hydroxytryptamine receptor 2C (Homo sapiens), sequence (P28335 whole entry): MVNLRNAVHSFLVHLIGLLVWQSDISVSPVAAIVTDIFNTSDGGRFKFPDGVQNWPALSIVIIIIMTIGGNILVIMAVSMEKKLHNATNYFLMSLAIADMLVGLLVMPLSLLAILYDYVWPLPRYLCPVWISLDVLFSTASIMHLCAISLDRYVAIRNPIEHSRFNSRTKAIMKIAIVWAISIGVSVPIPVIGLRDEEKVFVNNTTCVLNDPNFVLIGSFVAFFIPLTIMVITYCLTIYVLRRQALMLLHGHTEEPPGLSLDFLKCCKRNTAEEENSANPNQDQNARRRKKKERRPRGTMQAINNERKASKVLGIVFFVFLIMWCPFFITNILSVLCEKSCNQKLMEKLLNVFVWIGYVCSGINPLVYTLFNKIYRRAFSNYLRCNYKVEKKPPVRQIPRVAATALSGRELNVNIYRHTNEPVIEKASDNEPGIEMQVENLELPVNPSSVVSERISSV
# 5-hydroxytryptamine receptor 7 (Homo sapiens), sequence (P34969 whole entry): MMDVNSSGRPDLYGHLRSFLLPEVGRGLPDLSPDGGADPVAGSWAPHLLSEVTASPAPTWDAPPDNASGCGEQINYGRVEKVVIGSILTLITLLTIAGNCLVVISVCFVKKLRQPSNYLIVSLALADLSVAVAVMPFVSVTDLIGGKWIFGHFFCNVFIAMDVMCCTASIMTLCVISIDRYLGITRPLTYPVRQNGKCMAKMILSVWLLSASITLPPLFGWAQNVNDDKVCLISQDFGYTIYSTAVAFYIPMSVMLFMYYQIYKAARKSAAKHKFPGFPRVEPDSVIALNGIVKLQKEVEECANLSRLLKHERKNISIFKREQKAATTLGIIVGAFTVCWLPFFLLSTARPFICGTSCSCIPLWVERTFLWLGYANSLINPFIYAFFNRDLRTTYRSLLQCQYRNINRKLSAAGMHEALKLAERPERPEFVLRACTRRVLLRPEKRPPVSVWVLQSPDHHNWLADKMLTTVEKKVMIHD
# 5-hydroxytryptamine receptor 3A (Homo sapiens), sequence (P46098 whole entry): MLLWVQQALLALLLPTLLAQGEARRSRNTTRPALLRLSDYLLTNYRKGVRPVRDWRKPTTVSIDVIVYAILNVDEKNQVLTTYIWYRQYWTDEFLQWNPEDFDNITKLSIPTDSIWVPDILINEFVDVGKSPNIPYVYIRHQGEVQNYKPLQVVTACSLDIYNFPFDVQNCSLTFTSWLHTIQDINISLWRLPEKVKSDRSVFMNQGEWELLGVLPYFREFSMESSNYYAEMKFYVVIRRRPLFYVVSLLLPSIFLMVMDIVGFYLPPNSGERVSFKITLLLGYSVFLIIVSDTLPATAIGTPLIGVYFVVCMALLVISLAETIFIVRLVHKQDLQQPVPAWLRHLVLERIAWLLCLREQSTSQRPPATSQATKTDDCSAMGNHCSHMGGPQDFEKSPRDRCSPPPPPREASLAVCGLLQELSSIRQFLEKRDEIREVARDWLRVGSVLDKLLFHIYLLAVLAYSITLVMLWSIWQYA
# 5-hydroxytryptamine receptor 3A, sequence (P46098 whole entry): as above
# Alpha-1B adrenergic receptor (Homo sapiens), sequence (P35368 whole entry): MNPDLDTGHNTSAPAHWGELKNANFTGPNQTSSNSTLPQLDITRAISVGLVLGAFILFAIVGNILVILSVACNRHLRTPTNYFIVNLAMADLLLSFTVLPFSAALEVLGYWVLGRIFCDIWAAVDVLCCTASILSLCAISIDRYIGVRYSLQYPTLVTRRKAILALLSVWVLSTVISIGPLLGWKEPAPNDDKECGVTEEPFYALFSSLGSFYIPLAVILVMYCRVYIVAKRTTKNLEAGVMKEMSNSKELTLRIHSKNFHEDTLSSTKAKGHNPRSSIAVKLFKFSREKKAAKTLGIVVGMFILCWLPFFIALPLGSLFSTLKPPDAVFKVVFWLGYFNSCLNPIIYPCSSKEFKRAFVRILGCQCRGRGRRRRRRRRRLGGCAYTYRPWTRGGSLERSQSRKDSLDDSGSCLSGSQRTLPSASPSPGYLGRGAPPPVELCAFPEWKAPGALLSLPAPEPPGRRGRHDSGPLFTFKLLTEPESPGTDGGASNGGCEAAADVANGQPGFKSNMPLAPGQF
# Alpha-1D adrenergic receptor (Homo sapiens), sequence (P25100 whole entry): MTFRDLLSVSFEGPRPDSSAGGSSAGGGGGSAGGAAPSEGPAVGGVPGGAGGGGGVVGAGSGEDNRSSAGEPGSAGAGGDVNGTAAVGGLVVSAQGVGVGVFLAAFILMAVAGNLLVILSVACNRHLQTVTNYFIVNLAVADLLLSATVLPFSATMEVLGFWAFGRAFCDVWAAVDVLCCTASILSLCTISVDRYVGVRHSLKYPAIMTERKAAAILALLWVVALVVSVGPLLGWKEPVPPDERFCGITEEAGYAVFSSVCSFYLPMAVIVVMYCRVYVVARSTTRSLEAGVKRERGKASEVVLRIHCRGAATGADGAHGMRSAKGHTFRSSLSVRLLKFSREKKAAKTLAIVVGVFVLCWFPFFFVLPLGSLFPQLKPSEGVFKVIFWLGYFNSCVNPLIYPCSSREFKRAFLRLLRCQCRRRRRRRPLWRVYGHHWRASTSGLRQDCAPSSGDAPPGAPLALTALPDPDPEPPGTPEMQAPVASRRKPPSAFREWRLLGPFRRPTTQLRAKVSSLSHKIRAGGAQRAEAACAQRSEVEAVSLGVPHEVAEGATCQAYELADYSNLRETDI
smiles,measurement,setting,value
Cn1c(-c2csc(C3CCN(CC4=NC5N=CC=CC5N4)CC3)n2)nc2ccccc21 (configuration not stated) [BAY-070],inhibition,[1],-1.09%
same,inhibition,[2],10.1%
same,inhibition,[3],0.44%
same,inhibition,[4],7.08%
same,inhibition,[5],19.9%
same,inhibition,[6],43.4%
same,inhibition,[7],98%
same,inhibition,[8],-6.05%
same,inhibition,[9],72%
same,Ki,[10],1290 nM
same,inhibition,[11],14.7%
same,inhibition,Rattus norvegicus,13.7%
same,inhibition,[12],-4.2%
same,inhibition,[13],44%
same,inhibition,[14],27.1%
same,inhibition,[15],14.4%
same,inhibition,[16],10.2%
same,inhibition,[17],31.4%
same,Ki,[18]; read-out: Ki,1580 nM
same,Ki,[18]; read-out: pKi (converted),1510 nM
same,inhibition,[19],16.2%
same,inhibition,[20],3.76%
same,inhibition,[21],1.91%
same,inhibition,[22],44.6%
same,inhibition,[23],-0.96%
same,inhibition,[24],19.5%
same,inhibition,[25],8.59%
same,inhibition,[26],6.33%
same,inhibition,[27],-9.17%
same,inhibition,[28],4.71%
same,inhibition,[29],9.54%
same,inhibition,[30],-7.57%
same,inhibition,[31],18.1%
same,inhibition,[32],13.5%
same,inhibition,[33],80%
same,inhibition,[34],10.1%
same,inhibition,[35],5.35%
same,Ki,[36]; read-out: Ki,152 nM
same,inhibition,[37],19.9%
same,inhibition,[38],-3.53%
same,inhibition,[39],47.6%
same,inhibition,[40],7.64%
same,inhibition,[41],23%
same,inhibition,[42],45.1%
same,inhibition,[43],16.1%
same,inhibition,[44],22%
c1ccc2oc(-c3csc(C4CCN(Cc5nc6ncccc6[nH]5)CC4)n3)cc2c1,Cell Proliferation EC50,LS174T,43 nM
same,Cell Proliferation EC70,LS174T,109 nM
same,inhibition,[2],54.2%
same,inhibition,[3],37.4%
same,inhibition,[4],40.3%
same,inhibition,[5],53.4%
same,inhibition,[6],1.7%
same,Cell Proliferation EC50,LOX IMVI,126 nM
same,Cell Proliferation EC70,LOX IMVI,335 nM
same,inhibition,[7],78.1%
same,inhibition,[8],48.3%
same,inhibition,[9],74.5%
same,Cell Proliferation EC50,Caco-2,129 nM
same,Cell Proliferation EC70,Caco-2,209 nM
same,Ki,[10],1180 nM
same,inhibition,[11],-4.61%
same,inhibition,Rattus norvegicus,20.2%
same,inhibition,[12],5.87%
same,inhibition,[13],16.5%
same,inhibition,[14],32.1%
same,inhibition,[15],9.84%
same,inhibition,[16],16.4%
same,inhibition,[17],72.4%
same,Ki,[45]; read-out: Ki,5460 nM
same,Ki,[45]; read-out: pKi (converted),5370 nM
same,Cell Proliferation EC50,BG-1 cell line,142 nM
same,Cell Proliferation EC70,BG-1 cell line,207 nM
same,Ki,[18]; read-out: Ki,558 nM
same,Ki,[18]; read-out: pKi (converted),550 nM
same,inhibition,[19],19.9%
same,inhibition,[20],22%
same,inhibition,[46],7.9%
same,inhibition,[21],14.8%
same,inhibition,[22],5.5%
same,inhibition,[23],16.9%
same,Cell Proliferation EC50,[47],81 nM
same,Cell Proliferation EC70,[47],147 nM
same,Ki,[48],5240 nM
same,Ki,[49]; read-out: Ki,5470 nM
same,Ki,[49]; read-out: pKi (converted),4420 nM
same,inhibition,[24],11.7%
same,inhibition,[25],20.2%
same,Cell Proliferation EC50,[50],23 nM
same,Cell Proliferation EC70,[50],48 nM
same,inhibition,[26],15.5%
same,inhibition,[27],2.33%
same,inhibition,[28],16%
same,Cell Proliferation EC50,SK-MEL-28,75 nM
same,Cell Proliferation EC70,SK-MEL-28,215 nM
same,Cell Proliferation EC50,[51],65 nM
same,Cell Proliferation EC70,[51],104 nM
same,inhibition,[29],22.4%
same,inhibition,[30],-4.94%
same,inhibition,[52],-2.56%
same,inhibition,[31],21.6%
same,inhibition,[53],30.9%
same,inhibition,[32],-7.72%
same,inhibition,[33],55.4%
same,inhibition,[34],40.9%
same,inhibition,[35],5.5%
same,Ki,[36]; read-out: Ki,1120 nM
same,Ki,[36]; read-out: pKi (converted),1100 nM
same,Cell Proliferation EC50,MKN-1,34 nM
same,Cell Proliferation EC70,MKN-1,85 nM
same,inhibition,[37],20.9%
same,Cell Proliferation EC50,RKO,153 nM
same,Cell Proliferation EC70,RKO,251 nM
same,inhibition,[39],28.6%
same,Ki,[54],3500 nM
same,inhibition,[40],35.7%
same,inhibition,[41],25.4%
same,inhibition,[42],72.1%
same,inhibition,[43],-0.2%
same,Cell Proliferation EC50,[55],66 nM
same,Cell Proliferation EC70,[55],195 nM
same,inhibition,[44],28.7%
